Source: paper PMC8948292, “Combining PEGylated mito-atovaquone with MCT and Krebs cycle redox inhibitors as a potential strategy to abrogate tumor cell proliferation” (Scientific Reports, 2022)
Read-outs that look alike come from different tables or passages of the source.

Legend:
[1] = tested on: mitochondrial respiration (OCR) in intact MiaPaCa-2 cells; assay: Intact cell mitochondrial respiration (basal OCR), Seahorse XF-96; type: cell-based, human; conditions: for OCR (pmol/min/µg protein): intact MiaPaCa-2 cells, baseline OCR, mean, n=4; for IC50: Homo sapiens, read-out: IC50, inhibition of basal OCR in intact cells
Description: (§1) Mitochondrial oxygen consumption was measured using the Seahorse XF-96 Extracellular Flux Analyzer (Agilent, North Billerica, MA)[3],[33],[67],[68]. To determine the intact cell mitochondrial function of MiaPaCa-2 cells in response to Mito-PEG-ATO analogs, we used the bioenergetic function assay previously described[2],[3]. […] From these measurements, indices of mitochondrial function were determined as previously described[2],[3]. For mitochondrial complex activities assays, after cells were treated with Mito-PEG-ATO analogs for 24 h, the OCR-based assessment of mitochondrial complex activities was carried out on acutely permeabilized cells in the presence of different mitochondrial substrates, i.e., pyruvate/malate for complex I and duroquinol for complex III[3],[32],[34],[69]. Rotenone, malonate, and antimycin A (Sigma-Aldrich, St. Louis, MO) were used as specific inhibitors of mitochondrial complexes I, II, and III, respectively. Briefly, cells that were intact after treatments were immediately permeabilized using the Seahorse XF Plasma Membrane Permeabilizer (Agilent). The mitochondrial complex I-induced OCR was assayed in mannitol and sucrose buffer[69] containing 10 mM pyruvate and 1.5 mM malate (substrates for complex I) and 10 mM malonate (which inhibits complex II activities). The mitochondrial complex III-driven OCR was assayed in a mannitol and sucrose buffer containing 0.5 mM duroquinol (substrate for complex III) as well as 1 µM rotenone and 10 mM malonate (which inhibit both complex I and II activities). The IC50 values were determined as previously reported.

MiaPaCa-2 cells = assay: Cell proliferation (cell confluence), IncuCyte Live-Cell Analysis System; type: cell-based, human; conditions: for IC50: Homo sapiens; for Cell confluence (% of control): control ~90% confluence
Description: The following cell lines were obtained from the American Type Culture Collection (Manassas, VA), where they were regularly authenticated: MiaPaCa-2 (ATCC Cat# CRL-1420, human pancreatic cancer cells), U87MG (ATCC Cat# HTB-14, human brain cancer cells), A549 (ATCC Cat# CCL-185, lung cancer cells), and HCT-116 (ATCC Cat# CCL-247, colon cancer cells). All cell lines were grown at 37 °C in 5% carbon dioxide. MiaPaCa-2 cells were maintained in Dulbecco's Modified Eagle Medium (Thermo Fisher Scientific, Waltham, MA; Cat# 11965) supplemented with 10% fetal bovine serum. U87MG, A549, and HCT-116 cells were maintained in RPMI 1640 medium (Thermo Fisher Scientific, Cat# 11875), supplemented with 10% fetal bovine serum. All cells were stored in liquid nitrogen and used within 20 passages after thawing.
The IncuCyte Live-Cell Analysis System was used to monitor cell proliferation[3],[33],[67]. As shown in previous publications[3],[67], this imaging system is probe-free and noninvasive, and enables continuous monitoring of cell confluence over several days. The increase in the percentage of cell confluence was used as a surrogate marker of cell proliferation. In a 96-well plate, cells were plated at 1,000 cells per well in triplicates and left to adhere overnight. Cells were then treated with Mito-PEG-ATO analogs, and the cell confluency was recorded over several days in the IncuCyte Live-Cell Analysis System.

[2] = biological target: mitochondrial complex III (MiaPaCa-2 cells) (Homo sapiens, UniProt P00156); assay: Complex III-dependent oxygen consumption in permeabilized cells, Seahorse XF-96; type: cell-based
Sequence of mitochondrial complex III (MiaPaCa-2 cells) (P00156 whole entry): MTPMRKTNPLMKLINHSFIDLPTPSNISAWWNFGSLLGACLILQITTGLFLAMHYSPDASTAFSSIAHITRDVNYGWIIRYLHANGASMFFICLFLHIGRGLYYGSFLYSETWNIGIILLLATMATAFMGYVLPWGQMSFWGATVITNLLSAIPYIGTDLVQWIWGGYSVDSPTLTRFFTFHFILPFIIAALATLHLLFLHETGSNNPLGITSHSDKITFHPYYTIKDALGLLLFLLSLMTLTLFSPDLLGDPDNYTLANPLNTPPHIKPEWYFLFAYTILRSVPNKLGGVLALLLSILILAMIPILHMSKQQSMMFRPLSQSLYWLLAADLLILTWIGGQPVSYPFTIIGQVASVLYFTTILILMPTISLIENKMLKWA
Sequence of mitochondrial complex III (MiaPaCa-2 cells) (P47985 whole entry partner): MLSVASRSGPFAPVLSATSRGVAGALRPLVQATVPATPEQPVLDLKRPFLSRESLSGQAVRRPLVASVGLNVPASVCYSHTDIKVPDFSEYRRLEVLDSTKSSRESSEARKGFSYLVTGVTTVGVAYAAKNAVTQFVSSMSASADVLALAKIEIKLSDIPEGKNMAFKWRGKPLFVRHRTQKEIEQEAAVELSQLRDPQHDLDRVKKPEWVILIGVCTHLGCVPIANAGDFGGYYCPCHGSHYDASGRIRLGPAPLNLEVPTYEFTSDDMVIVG
Description: as §1

## COCCOCCOCCOCCOC1=C([C@H]2CC[C@H](c3ccc(Cl)cc3)CC2)C(=O)c2ccccc2C1=O [PEG4-ATO, 2-((2,5,8,11-tetraoxatridecan-13-yl)oxy)-3-(trans-4-(4-chlorophenyl)cyclohexyl)naphthalene-1,4-dione]
[1]; 1 µM, 24 h treatment
  OCR (pmol/min/µg protein): 14.02 pmol/min/µg protein
[1]; 3 µM, 24 h treatment
  OCR (pmol/min/µg protein): 11.47 pmol/min/µg protein
[1]; 10 µM, 24 h treatment
  OCR (pmol/min/µg protein): 8.99 pmol/min/µg protein
[1]; 15 µM, 24 h treatment
  OCR (pmol/min/µg protein): 8.66 pmol/min/µg protein
[1]; 17.5 µM, 24 h treatment
  OCR (pmol/min/µg protein): 8.14 pmol/min/µg protein
[1]; 20 µM, 24 h treatment
  OCR (pmol/min/µg protein): 6.77 pmol/min/µg protein
[1]; 22.5 µM, 24 h treatment
  OCR (pmol/min/µg protein): 6.79 pmol/min/µg protein
[1]; 25 µM, 24 h treatment
  OCR (pmol/min/µg protein): 5.93 pmol/min/µg protein
[1]; 30 µM, 24 h treatment
  OCR (pmol/min/µg protein): 6.26 pmol/min/µg protein
[1]; 40 µM, 24 h treatment
  OCR (pmol/min/µg protein): 4.53 pmol/min/µg protein
[1]; 50 µM, 24 h treatment
  OCR (pmol/min/µg protein): 2.22 pmol/min/µg protein
[1]; MIA PaCa-2, MiaPaCa-2 cells, 24 h treatment
  IC50: 22000 nM
MiaPaCa-2 cells; MIA PaCa-2, MiaPaCa-2 cells, determined when control cells reached ~90% confluence, read-out: IC50, inhibition of cell proliferation
  IC50: 24000 nM
MiaPaCa-2 cells; MiaPaCa-2 cells, 1 µM
  Cell confluence (% of control): 96.77 % of control
MiaPaCa-2 cells; MiaPaCa-2 cells, 3 µM
  Cell confluence (% of control): 98.45 % of control
MiaPaCa-2 cells; MiaPaCa-2 cells, 5 µM
  Cell confluence (% of control): 92.22 % of control
MiaPaCa-2 cells; MiaPaCa-2 cells, 10 µM
  Cell confluence (% of control): 88.90 % of control
MiaPaCa-2 cells; MiaPaCa-2 cells, 15 µM
  Cell confluence (% of control): 79.02 % of control
MiaPaCa-2 cells; MiaPaCa-2 cells, 20 µM
  Cell confluence (% of control): 50.78 % of control
MiaPaCa-2 cells; MiaPaCa-2 cells, 30 µM
  Cell confluence (% of control): 33.44 % of control
MiaPaCa-2 cells; MiaPaCa-2 cells, 35 µM
  Cell confluence (% of control): 24.27 % of control
MiaPaCa-2 cells; MiaPaCa-2 cells, 40 µM
  Cell confluence (% of control): 17.96 % of control
MiaPaCa-2 cells; MiaPaCa-2 cells, 50 µM
  Cell confluence (% of control): 10.27 % of control

## O=C1C(OCCOCC[P+](c2ccccc2)(c2ccccc2)c2ccccc2)=C([C@H]2CC[C@H](c3ccc(Cl)cc3)CC2)C(=O)c2ccccc21.[Br-] [Mito-PEG2-ATO, [2-(2-((3-(trans-4-(4-chlorophenyl)cyclohexyl)-1,4-dioxo-1,4-dihydronaphthalen-2-yl)oxy)ethoxy)ethyl]triphenylphosphonium bromide]
[1]; 0.01 µM, 24 h treatment
  OCR (pmol/min/µg protein): 16.21 pmol/min/µg protein
[1]; 0.1 µM, 24 h treatment
  OCR (pmol/min/µg protein): 14.62 pmol/min/µg protein
[1]; 0.2 µM, 24 h treatment
  OCR (pmol/min/µg protein): 14.19 pmol/min/µg protein
[1]; 0.3 µM, 24 h treatment
  OCR (pmol/min/µg protein): 13.58 pmol/min/µg protein
[1]; 0.4 µM, 24 h treatment
  OCR (pmol/min/µg protein): 12.73 pmol/min/µg protein
[1]; 0.5 µM, 24 h treatment
  OCR (pmol/min/µg protein): 10.74 pmol/min/µg protein
[1]; 0.75 µM, 24 h treatment
  OCR (pmol/min/µg protein): 8.54 pmol/min/µg protein
[1]; 1 µM, 24 h treatment
  OCR (pmol/min/µg protein): 6.82 pmol/min/µg protein
[1]; 3 µM, 24 h treatment
  OCR (pmol/min/µg protein): 1.26 pmol/min/µg protein
[1]; 10 µM, 24 h treatment
  OCR (pmol/min/µg protein): -0.10 pmol/min/µg protein
[1]; MIA PaCa-2, 24 h
  IC50: 760 nM
MiaPaCa-2 cells; MIA PaCa-2, read-out: IC50, inhibition of cell proliferation
  IC50: 300 nM
MiaPaCa-2 cells; MiaPaCa-2 cells, 0.003 µM
  Cell confluence (% of control): 95.33 % of control
MiaPaCa-2 cells; MiaPaCa-2 cells, 0.01 µM
  Cell confluence (% of control): 101.09 % of control
MiaPaCa-2 cells; MiaPaCa-2 cells, 0.03 µM
  Cell confluence (% of control): 98.91 % of control
MiaPaCa-2 cells; MiaPaCa-2 cells, 0.05 µM
  Cell confluence (% of control): 101.49 % of control
MiaPaCa-2 cells; MiaPaCa-2 cells, 0.1 µM
  Cell confluence (% of control): 100.20 % of control
MiaPaCa-2 cells; MiaPaCa-2 cells, 0.2 µM
  Cell confluence (% of control): 91.59 % of control
MiaPaCa-2 cells; MiaPaCa-2 cells, 0.3 µM
  Cell confluence (% of control): 54.02 % of control
MiaPaCa-2 cells; MiaPaCa-2 cells, 0.5 µM
  Cell confluence (% of control): 5.85 % of control
MiaPaCa-2 cells; MiaPaCa-2 cells, 1 µM
  Cell confluence (% of control): 3.35 % of control
MiaPaCa-2 cells; MiaPaCa-2 cells, 3 µM
  Cell confluence (% of control): 3.28 % of control
MiaPaCa-2 cells; MiaPaCa-2 cells, 10 µM
  Cell confluence (% of control): 2.85 % of control
[2]; 0.01 µM
  Complex III activity (OCR, % of control): 103.6 % of control
[2]; 0.1 µM
  Complex III activity (OCR, % of control): 95.3 % of control
[2]; 0.2 µM
  Complex III activity (OCR, % of control): 101.4 % of control
[2]; 0.3 µM
  Complex III activity (OCR, % of control): 99.3 % of control
[2]; 0.4 µM
  Complex III activity (OCR, % of control): 99.1 % of control
[2]; 0.5 µM
  Complex III activity (OCR, % of control): 88.9 % of control
[2]; 0.75 µM
  Complex III activity (OCR, % of control): 75.4 % of control
[2]; 1 µM
  Complex III activity (OCR, % of control): 64.3 % of control
[2]; 3 µM
  Complex III activity (OCR, % of control): 15.0 % of control
[2]; MiaPaCa-2 cells, 24 h treatment, antimycin A-inhibitable OCR, read-out: IC50, complex III-induced oxygen consumption (Complex III activity)
  IC50: 1200 nM
